Measurements published in US20250255850A1, “PHARMACEUTICAL COMPOSITIONS FOR TREATING NEUROLOGICAL CONDITIONS” (YISSUM RESEARCH DEVELOPMENT COMPANY OF THE HEBREW …, priority 2021, published 2025).

Columns and labels:
SH-SY5Y cells [1] = assay: Confocal immunofluorescence of synaptophysin and 3-nitrotyrosine; assay type: cell-based, human; conditions: pharmacological inhibition (7-NI) or knockdown of nNOS
Protocol: FIGS. 18A-C show immunofluorescence of synaptophysin and 3-nitrotyrosine in SH-SY5Y cells with inhibited nNOS activity. Cells (with or without treatment) were postfixed in 4% paraformaldehyde and then incubated with the primary rabbit monoclonal Syp (red), and either primary mouse monoclonal NeuN (green), or primary mouse monoclonal 3-Ntyr (green) antibodies, in another group of cells. Cells were incubated with their respective secondary antibodies, such as anti-mouse Alexa fluor488, or anti-rabbit Alexa fluor594, and then mounted with DAPI (Blue) in both groups of cells. The images were acquired using a confocal microscope. Groups of cells: SH-SY5Y, SH-SY5Y+7-NI, and SH-SY5Y+si-nNOS. Each group consisted of three independent sets of experiments and was run in triplicates. The initial cell seed number was ˜10^6/cm^2. FIG. 18A presents representative images of Syp and 3-Ntyr immunofluorescence. FIGS. 18B-C are bar graphs showing the relative fluorescent intensity of Syp (FIG. 18B) and N-Tyr (FIG. 18C) immunofluorescence in the 3 groups of cells. The data are presented as mean±SEM. One-way ANOVA followed by Fisher's LSD multiple comparison post hoc test was conducted. *P<0.05, **P<0.01, ***P<0.001. The scale bar is 100 μm. […]

SH-SY5Y cells [2] = assay: Nitrite (Griess) assay in SH-SY5Y cells; assay type: cell-based, human; conditions: 7-NI 100 μM 24 hours or 20 nM nNOS siRNA 24 hours
Protocol: Human NB SH-SY5Y cells were obtained from the American Type Culture Collection (ATCC) and maintained in Dulbecco's modified Eagle's medium (DMEM) and Ham's F-12 (1:1) supplemented with 10% fetal bovine serum, 2 mM L-glutamine, and 100 U/ml penicillin-G/100 […] streptomycin in a humidified atmosphere (37° C., 5% CO2). Cells were plated onto 25 cm^2 and 75 cm^2 plates at a density of 7.0×10^5 and 2.1×10^6 cells/cm^2 respectively for Western blotting (WB) and 1×10^5 for immunofluorescence. The SH-SY5Y cells were treated with 100 μM 7-nitroindazole (7-NI) for 24 hours (Fujibayashi et al., 2015). This concentration was confirmed in a dose-response experiment (FIG. 14A) using an MTT viability assay.
SH-SY5Y cells were plated in 6 well plates, as well as on 22 mm^2 coverslips at a density of 6.0×10^4 cells/cm^2 and transfected with 20 nM nNOS siRNA (NOSIHSS1072, Invitrogen) for 24 hours, with the use of Lipofectamine RNAi MAX (56530, Invitrogen) according to the manufacturer's protocol. Then cells were washed with phosphate-buffered saline (PBS) and harvested for WB and fixed for immunofluorescence (Fujibayashi et al., 2015).
Released NO was measured with Griess assay Kit (Sigma-Aldrich, Cat. No. 23479) using the manufacturer's instructions.

## O=[N+]([O-])c1cccc2cn[nH]c12 [7-NI, 7-nitroindazole]
SH-SY5Y cells [1]
  intensity of 3-Ntyr immunofluorescence: significantly decreased the intensity
  intensity of Syp immunofluorescence: significantly decreased the intensity
SH-SY5Y cells [2]
  nitrite content (Griess assay): reduction of nitrite content
